Tests used:
[1] = Pharmacokinetic parameters of Propofol following intravenous administration in subjects.; details: human, in vivo
[2] = Pharmacokinetic parameters for Propofol following multiple intravenous administration in subjects.; details: human, in vivo

Compound: CC(C)c1cccc(C(C)C)c1O [PROPOFOL]
- clearance [1]: 23 to 50 mL/min/kg
- half-life [2]: 24 to 72 h

Source: ChEMBL document CHEMBL3832043, “DailyMed|setid=ef14e332-51ac-ea97-3542-9bc92557dbed | PROPOFOL- propofol injection, emulsion|APP Pharmaceuticals, LLC”
